For one assay, the system named is normal PBMC. The following applies: glycyrrhizin alone; cited from earlier work.
Assay [1] deals with peripheral blood mononuclear cells (PBMC). The assay can be described thus: IL-1β secretion by PBMC incubated 72 h with Immune+™ with or without PHA, ELISA (Example 2). Type of assay: cell-based, human. The following applies: PHA alone, 10 μg/ml. The procedure: (§1) Ten mg of Immune+™ was suspended in 1 ml RPMI-1640 with 10% heat inactivated fetal bovine serum (media). The suspension was shaken vigorously on a vortex mixer. The insoluble components were quickly pelleted and the remaining suspension filtered twice: first through a 0.45 micron syringe filter followed by a 0.2 micron syringe filter. This filtrate was used as our stock (approx. 10 mg/ml) from which dilutions were made for the incubations with PBMC. The stock solution was diluted in media prior to treatment with PBMC.
(§2) Volunteers of various ethnic backgrounds and ranging in age from 18-35 years, participated in this study. […] Viability was determined by trypan blue exclusion and was consistently >96%. […]
(§3) Aliquots of culture supernates were frozen immediately upon harvest and stored at −20° C. until analysis by ELISA. Concentrations of IL-1 β and IFN-γ were determined using the DuoSet® ELISA Development System (R & D Systems, Minneapolis, Minn.) with a detection limit of 3.9 and 15.6 pg/ml respectively.
(§4) The effects of various concentrations of Immune+™ on IL-1β and IFN-γ production in either unstimulated or PHA-stimulated PBMC were analyzed using a one-way ANOVA followed by post-hoc Tukey comparison. […]
(§5) The concentrations of IL-1β and IFN-γ in the supernate were measured by ELISA.

Assay [2] shares this test system. The assay can be described thus: IFN-γ secretion by PBMC incubated 72 h with Immune+™ with or without PHA, ELISA (Example 2). Format: cell-based, human. The conditions noted are these: PHA alone, 10 μg/ml. The procedure:
as §1, §2, §3, §4, §5

For the compound `CC1(C)[C@@H](O[C@H]2O[C@H](C(=O)O)[C@@H](O)[C@H](O)[C@H]2O[C@@H]2O[C@H](C(=O)O)[C@@H](O)[C@H](O)[C@H]2O)CC[C@]2(C)[C@H]3C(=O)C=C4[C@@H]5C[C@@](C)(C(=O)O)CC[C@]5(C)CC[C@@]4(C)[C@]3(C)CC[C@@H]12` [glycyrrhizin, 20β-carboxy-11-oxo-30-norolean-12-en-3 βyl-2-O-β-D-glucopyranuronosyl-α-D-glucopyranosiduronic acid], the “IFN-γ production” value in the assay on normal PBMC is “did not markedly alter”.
Take phytohemagglutinin [PHA]: in assay [1], the “IL-1β production” value is reported as “no effect”. Besides, in assay [2], the “IFN-γ production” value was “resulted in a production of IFN-γ”.

These data come from US6468541B2, “Natural, non-allergenic, immune system stimulant” (Chinese Herbal USA, Inc., priority 2000, dated 2002).
